Assays:
Assay in all cases: relative viability (nuclei count vs DMSO), 5 days (fraction); higher = more cells survive
[1] = system: NCI-H650
Outline: (§1)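 Cells from lung cancer lines were seeded into 1536-well plates and, one day later, dosed by pin tool. Treatments were either a single drug or a fixed dose of an anchor drug with five library-drug doses (not always all listed) in √10 steps. After 5 days, nuclei were stained in a one-step fixation (final 0.05% Triton X-100, 1% formaldehyde, 1 ug/ml Hoechst) and counted on 4× images, and relative viability is the treated-to-vehicle nuclei ratio, as the median of duplicate plates.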

[2] = system: LOU-NH91
Outline: as §1

[3] = system: NCI-H1755
Outline: as §1

[4] = system: HARA
Outline: as §1

[5] = system: NCI-H2170
Outline: as §1

[6] = system: NCI-H23
Outline: as §1

[7] = system: PC-3 [JPC-3]
Outline: as §1

[8] = system: NCI-H2126
Outline: as §1

[9] = system: BEN
Outline: as §1

[10] = system: NCI-H2023
Outline: as §1

[11] = system: NCI-H441
Outline: as §1

[12] = system: LCLC-97TM1
Outline: as §1

[13] = system: NCI-H1793
Outline: as §1

[14] = system: LU99A
Outline: as §1

[15] = system: NCI-H1666
Outline: as §1

[16] = system: NCI-H460
Outline: as §1

[17] = system: NCI-H1915
Outline: as §1

[18] = system: SK-LU-1
Outline: as §1

[19] = system: NCI-H1944
Outline: as §1

[20] = system: NCI-H1395
Outline: as §1

[21] = system: A-427
Outline: as §1

[22] = system: LXF-289
Outline: as §1

[23] = system: NCI-H322M
Outline: as §1

Structure (SMILES): O=c1[nH]c2ccccc2n1C1CCN(CCCC(c2ccc(F)cc2)c2ccc(F)cc2)CC1 [Pimozide] + COc1cc2c(Oc3ccc(NC(=O)C4(C(=O)Nc5ccc(F)cc5)CC4)cc3F)ccnc2cc1OCCCN1CCOCC1 [Foretinib] (partner 0.25 µM)
- relative viability ([1]; first compound 0.08 µM): 1.07
- relative viability ([1]; first compound 0.253 µM): 1.02
- relative viability ([1]; first compound 0.8 µM): 1
- relative viability ([1]; first compound 2.53 µM): 1.04
- relative viability ([1]; first compound 8 µM): 1.04
- relative viability ([2]; first compound 0.08 µM): 0.586
- relative viability ([2]; first compound 0.253 µM): 0.743
- relative viability ([2]; first compound 0.8 µM): 0.879
- relative viability ([2]; first compound 2.53 µM): 0.944
- relative viability ([2]; first compound 8 µM): 0.888
- relative viability ([3]; first compound 0.08 µM): 0.929
- relative viability ([3]; first compound 0.253 µM): 0.928
- relative viability ([3]; first compound 0.8 µM): 0.874
- relative viability ([3]; first compound 2.53 µM): 0.948
- relative viability ([3]; first compound 8 µM): 0.812
- relative viability ([4]; first compound 0.253 µM): 0.874
- relative viability ([4]; first compound 0.8 µM): 0.873
- relative viability ([4]; first compound 2.53 µM): 0.733
- relative viability ([4]; first compound 8 µM): 0.766
- relative viability ([5]; first compound 0.08 µM): 1.04
- relative viability ([5]; first compound 0.253 µM): 1.03
- relative viability ([5]; first compound 0.8 µM): 0.985
- relative viability ([5]; first compound 2.53 µM): 0.99
- relative viability ([5]; first compound 8 µM): 1.06
- relative viability ([6]; first compound 0.08 µM): 0.676
- relative viability ([6]; first compound 0.253 µM): 1.07
- relative viability ([6]; first compound 0.8 µM): 0.833
- relative viability ([6]; first compound 2.53 µM): 0.712
- relative viability ([6]; first compound 8 µM): 0.829
- relative viability ([7]; first compound 0.08 µM): 0.839
- relative viability ([7]; first compound 0.253 µM): 1.03
- relative viability ([7]; first compound 0.8 µM): 0.952
- relative viability ([7]; first compound 2.53 µM): 0.931
- relative viability ([7]; first compound 8 µM): 0.86
- relative viability ([8]; first compound 0.08 µM): 1.39
- relative viability ([8]; first compound 0.253 µM): 1.14
- relative viability ([8]; first compound 0.8 µM): 1.06
- relative viability ([8]; first compound 2.53 µM): 1.23
- relative viability ([8]; first compound 8 µM): 1.13
- relative viability ([9]; first compound 0.08 µM): 0.624
- relative viability ([9]; first compound 0.253 µM): 0.768
- relative viability ([9]; first compound 0.8 µM): 0.618
- relative viability ([9]; first compound 2.53 µM): 0.581
- relative viability ([9]; first compound 8 µM): 0.783
- relative viability ([10]; first compound 0.08 µM): 0.687
- relative viability ([10]; first compound 0.253 µM): 0.916
- relative viability ([10]; first compound 0.8 µM): 0.91
- relative viability ([10]; first compound 2.53 µM): 0.705
- relative viability ([10]; first compound 8 µM): 0.64
- relative viability ([11]; first compound 0.08 µM): 1.09
- relative viability ([11]; first compound 0.253 µM): 1.16
- relative viability ([11]; first compound 0.8 µM): 1.1
- relative viability ([11]; first compound 2.53 µM): 0.948
- relative viability ([11]; first compound 8 µM): 0.922
- relative viability ([12]; first compound 0.08 µM): 0.926
- relative viability ([12]; first compound 0.253 µM): 1.03
- relative viability ([12]; first compound 0.8 µM): 0.823
- relative viability ([12]; first compound 2.53 µM): 0.852
- relative viability ([12]; first compound 8 µM): 0.789
- relative viability ([13]; first compound 0.253 µM): 0.691
- relative viability ([13]; first compound 0.8 µM): 0.462
- relative viability ([13]; first compound 2.53 µM): 0.582
- relative viability ([13]; first compound 8 µM): 0.521
- relative viability ([14]; first compound 0.08 µM): 0.872
- relative viability ([14]; first compound 0.253 µM): 0.756
- relative viability ([14]; first compound 0.8 µM): 0.922
- relative viability ([14]; first compound 2.53 µM): 0.84
- relative viability ([14]; first compound 8 µM): 0.922
- relative viability ([15]; first compound 0.08 µM): 0.952
- relative viability ([15]; first compound 0.253 µM): 0.939
- relative viability ([15]; first compound 0.8 µM): 0.941
- relative viability ([15]; first compound 2.53 µM): 0.867
- relative viability ([15]; first compound 8 µM): 0.857
- relative viability ([16]; first compound 0.08 µM): 0.973
- relative viability ([16]; first compound 0.253 µM): 1.03
- relative viability ([16]; first compound 0.8 µM): 0.872
- relative viability ([16]; first compound 2.53 µM): 0.864
- relative viability ([16]; first compound 8 µM): 0.867
- relative viability ([17]; first compound 0.08 µM): 1.05
- relative viability ([17]; first compound 0.253 µM): 1.01
- relative viability ([17]; first compound 0.8 µM): 0.855
- relative viability ([17]; first compound 2.53 µM): 0.974
- relative viability ([17]; first compound 8 µM): 1.05
- relative viability ([18]; first compound 0.08 µM): 0.888
- relative viability ([18]; first compound 0.253 µM): 0.793
- relative viability ([18]; first compound 0.8 µM): 0.783
- relative viability ([18]; first compound 2.53 µM): 0.777
- relative viability ([18]; first compound 8 µM): 0.637
- relative viability ([19]; first compound 0.08 µM): 0.901
- relative viability ([19]; first compound 0.253 µM): 0.891
- relative viability ([19]; first compound 0.8 µM): 0.807
- relative viability ([19]; first compound 2.53 µM): 0.735
- relative viability ([19]; first compound 8 µM): 0.817
- relative viability ([20]; first compound 0.08 µM): 1.02
- relative viability ([20]; first compound 0.253 µM): 0.975
- relative viability ([20]; first compound 0.8 µM): 0.953
- relative viability ([20]; first compound 2.53 µM): 1.03
- relative viability ([20]; first compound 8 µM): 0.91
- relative viability ([21]; first compound 0.08 µM): 1.02
- relative viability ([21]; first compound 0.253 µM): 1.04
- relative viability ([21]; first compound 0.8 µM): 0.976
- relative viability ([21]; first compound 2.53 µM): 0.669
- relative viability ([21]; first compound 8 µM): 0.966
- relative viability ([22]; first compound 0.08 µM): 0.989
- relative viability ([22]; first compound 0.253 µM): 0.929
- relative viability ([22]; first compound 0.8 µM): 0.944
- relative viability ([22]; first compound 2.53 µM): 0.892
- relative viability ([22]; first compound 8 µM): 0.934
- relative viability ([23]; first compound 0.253 µM): 1.04
- relative viability ([23]; first compound 0.8 µM): 0.85
- relative viability ([23]; first compound 2.53 µM): 0.942
- relative viability ([23]; first compound 8 µM): 0.844
